From patent US20240409537A1, “Crystal Form of AMG510 Compound, and Preparation Method Thereof and Use Thereof” (BIRDO (SHANGHAI) PHARMACEUTICAL R&D CO., LTD, priority 2021, published 2024)
≈ marks a conversion by molar mass, not a printed value. Entries after “also recorded” stand apart in the source; their conditions may differ. Like-named read-outs stand apart in the source and are kept apart here.

How the values were obtained:
[1] = cited from earlier work
[2] = Dynamic solubility of crystal form in SGF, FaSSIF, FeSSIF and water (HPLC); assay type: physicochemical
Protocol: When a drug solubility test was performed to predict the performances of a drug in vivo, it is important to simulate in vivo conditions as much as possible. For oral drugs, simulated gastric fluid (SGF), fasted state simulated intestinal fluid (FaSSIF) and fed state simulated intestinal fluid (FeSSIF) may be used to simulate in vivo conditions and predict a feeding effect, and the solubility tested in such media was closer to the solubility in the human body environment.

[3] = Hygroscopicity (Chinese Pharmacopoeia 9103, 25±1° C., 80% relative humidity); assay type: physicochemical; conditions: 80% RH, 24 h
Protocol: According to the description of hygroscopicity characteristics and the definition (9103 Drug Hygroscopicity Experiment Guiding Principles, 2020 edition of General Principles, Chinese Pharmacopoeia, experimental conditions: 25±1° C., 80% relative humidity) of the hygroscopic weight gain: • deliquescent: enough water is absorbed to form liquid • very hygroscopic: the hygroscopic weight gain is not less than 15.0% • hygroscopic: the hygroscopic weight gain is less than 15.0% but not less than 2.0% • slightly hygroscopic: the hygroscopic weight gain is less than 2.0% but not less than 0.2% • no or almost no hygroscopicity: the hygroscopic weight gain is […].

[4] = Stability of crystal form DCIII on sealed placement (HPLC purity, XRPD crystal form); assay type: physicochemical
[5] = Mechanical stability: manual grinding, XRPD before and after; assay type: physicochemical; conditions: ground manually in a mortar for 5 min
[6] = 25° C./60% RH, 1 month, sealed, listed as crystal form DCIII
[7] = 40° C./75% RH, 1 month, sealed, listed as crystal form DCIII
[8] = 60° C./75% RH, 1 month, sealed, listed as crystal form DCIII

C=CC(=O)N1CCN(c2nc(=O)n(-c3c(C)ccnc3C(C)C)c3nc(-c4c(O)cccc4F)c(F)cc23)[C@@H](C)C1 [Anhydrous crystal form I, 6-fluoro-7-(2-fluoro-6-hydroxyphenyl)-1-(4-methyl-2-propane-2-ylpyridin-3-yl)-4-[(2S)-2-methyl-4-propyl-2-enoylpiperazin-1-yl]pyridine[2,3-d]pyrimidin-2-one, reference compound]
Solubility (prior-art form, in words) [1]: low solubility | Solubility FaSSIF 1 h ([2]; FaSSIF, equilibrated 1 h): 0.02 mg/mL (≈ 35.7 µM) | Solubility FaSSIF 4 h ([2]; FaSSIF, equilibrated 4 h): 0.01 mg/mL (≈ 17.8 µM) | Solubility FeSSIF 4 h ([2]; FeSSIF, equilibrated 4 h): 0.04 mg/mL (≈ 71.4 µM) | Solubility H2O 1 h ([2]; equilibrated 1 h): 0.01 mg/mL (≈ 17.8 µM) | Solubility H2O 4 h ([2]; equilibrated 4 h): 0.01 mg/mL (≈ 17.8 µM) | Solubility H2O 24 h ([2]; equilibrated 24 h): 0.01 mg/mL (≈ 17.8 µM) | solubility at 24 h ([2]; fasted state simulated intestinal fluid (FaSSIF), fassif, thermodynamic from solid, FaSSIF, equilibrated 24 h, read-out: Solubility FaSSIF 24 h): 30 µg/mL (≈ 53.5 µM) | solubility at 24 h ([2]; fed state simulated intestinal fluid (FeSSIF), fessif, thermodynamic from solid, FeSSIF, equilibrated 24 h, read-out: Solubility FeSSIF 24 h): 60 µg/mL (≈ 107 µM) | solubility at 1 h ([2]; simulated gastric fluid (SGF), simulated gastric fluid, thermodynamic from solid, SGF, equilibrated 1 h): 3770 µg/mL (≈ 6720 µM) | solubility at 4 h ([2]; simulated gastric fluid (SGF), simulated gastric fluid, thermodynamic from solid, SGF, equilibrated 4 h): 3860 µg/mL (≈ 6890 µM) | solubility at 24 h ([2]; simulated gastric fluid (SGF), simulated gastric fluid, thermodynamic from solid, SGF, equilibrated 24 h, read-out: Solubility SGF 24 h): 3110 µg/mL (≈ 5550 µM)

C=CC(=O)N1CCN(c2nc(=O)n(-c3c(C)ccnc3C(C)C)c3nc(-c4c(O)cccc4F)c(F)cc23)[C@@H](C)C1 [Crystal form DCIII, 6-fluoro-7-(2-fluoro-6-hydroxyphenyl)-1-(4-methyl-2-propane-2-ylpyridin-3-yl)-4-[(2S)-2-methyl-4-propyl-2-enoylpiperazin-1-yl]pyridine[2,3-d]pyrimidin-2-one]
Weight gain percentage [3]: 0.6% | Weight gain mass ([3]; onset mass 102.76 mg): 0.64 mg | Solubility FaSSIF 1 h ([2]; FaSSIF, equilibrated 1 h): 0.05 mg/mL (≈ 89.2 µM) | Solubility FaSSIF 4 h ([2]; FaSSIF, equilibrated 4 h): 0.04 mg/mL (≈ 71.4 µM) | Solubility FaSSIF 24 h ([2]; FaSSIF, equilibrated 24 h): 0.04 mg/mL (≈ 71.4 µM) | Solubility FeSSIF 1 h ([2]; FeSSIF, equilibrated 1 h): 0.15 mg/mL (≈ 268 µM) | Solubility FeSSIF 4 h ([2]; FeSSIF, equilibrated 4 h): 0.2 mg/mL (≈ 357 µM) | Solubility FeSSIF 24 h ([2]; FeSSIF, equilibrated 24 h): 0.08 mg/mL (≈ 143 µM) | Solubility H2O 1 h ([2]; equilibrated 1 h): 0.03 mg/mL (≈ 53.5 µM) | Solubility H2O 4 h ([2]; equilibrated 4 h): 0.03 mg/mL (≈ 53.5 µM) | Solubility H2O 24 h ([2]; equilibrated 24 h): 0.03 mg/mL (≈ 53.5 µM) | Solubility compared with anhydrous crystal form I (in words) ([2]; SGF, FaSSIF, FeSSIF and pure water): higher solubility | Solubility SGF 1 h ([2]; SGF, equilibrated 1 h): 7.27 mg/mL (≈ 13000 µM) | Solubility SGF 4 h ([2]; SGF, equilibrated 4 h): 6.24 mg/mL (≈ 11100 µM) | Solubility SGF 24 h ([2]; SGF, equilibrated 24 h): 4.54 mg/mL (≈ 8100 µM) | Crystal form (XRPD) ([4]; 25° C./60% RH, 1 month, sealed): Crystal form DCIII | Purity (HPLC) ([4]; 25° C./60% RH, 1 month, sealed): 99.45% | Crystal form (XRPD) [4, 6]: remains unchanged | Purity (HPLC) [4, 6]: above 99% | Time for which physicochemical stability is maintained ([4]; 25° C./60% RH, 40° C./75% RH and 60° C./75% RH): at least 1 month | Crystal form (XRPD) ([4]; 40° C./75% RH, 1 month, sealed): Crystal form DCIII | Purity (HPLC) ([4]; 40° C./75% RH, 1 month, sealed): 99.49% | Crystal form (XRPD) [4, 7]: remains unchanged | Purity (HPLC) [4, 7]: does not present a significant decrease | Crystal form (XRPD) ([4]; 60° C./75% RH, 1 month, sealed): Crystal form DCIII | Purity (HPLC) ([4]; 60° C./75% RH, 1 month, sealed): 99.50% | Crystal form (XRPD) [4, 8]: remains unchanged | Purity (HPLC) [4, 8]: does not present a significant decrease | Crystal form (XRPD) ([4]; Onset): Crystal form DCIII | Purity (HPLC) ([4]; Onset): 99.44% | Crystal form before and after grinding (XRPD) [5]: remained unchanged; also recorded: no crystal transformation | Crystallinity after grinding [5]: no significant decrease
